Legend:
human GHS-R 1a [1] = biological target: T1, human GHS-R 1a (Homo sapiens, UniProt Q92847); test: In vitro intracellular calcium release assay using human GHS-R 1a transfected CHO cells; format: cell-based; parameters: expressed in transfected cells; host or cells: CHO-K1 Chinese hamster ovary cells (ATCC No. CCL-61), transient transfection by electroporation; details: for EC50: agonists, dose-response curve of intracellular calcium release; for activation at 1 µM: intracellular calcium release, compound at 10^-6 M, relative to basal level (0%) and 1 μM ghrelin (100%)
Description: The ability to properly activate the receptors is assessed for any compound of the invention by comparing the degree of activation (increase of intracellular calcium) of GHS-R 1a by the compound to be tested (at 10^−6 M concentration) to the degree of activation (increase of intracellular calcium) of GHS-R 1a by 10^−6 M ghrelin (100%) and to the basal level (0%). Such assessment can be readily performed by the skilled artisan due to his expert knowledge. The output is a percentage value for each compound to be tested. […]
III) In Vitro Intracellular Calcium Release Assay Using Human GHS-R 1a Transfected CHO Cells
The potential of the compounds of the invention to modulate GHS receptor activity was assessed by an in vitro intracellular Calcium release assay employing CHO cells that were transfected with human GHS-R 1a.
Release of intracellular calcium or inhibition thereof was measured using the fluorescent calcium indicator assay (FLIPR) and Fluo-4 AM.
CHO cells (CHO-KI Chinese Hamster Ovary cell line, ATCC No. CCL-61) were transiently transfected with human GHS-R 1a cDNA by electroporation and plated into 96-well black bottom plates (Corning 3603) (80,000 cells/well). Transient transfections were performed using the Easyject Optima Electroporator (Equibio), according to the manufacturer's instructions.
Transfected cells were grown in Dulbecco's modified Eagle's medium without phenol red, supplemented with 10% (v/v) non-essential amino acids, […] glutamine and streptomycin-penicillin (250 μg/ml-250 u/ml) (all purchased from Cambrex) at 37° C., 5% CO2 in a humidified atmosphere for 24 hours.
After incubation, transfected cells were washed with 150 μl Buffer A [Hanks' balanced salt solution (Sigma H-6648), 0.5% (v/v) BSA (Sigma A-7906), 20 mM CaCl2, 2.5 mM probenecid (pH 7.4, dissolved in 1 M NaOH) (Sigma P-8761)] and were then loaded with fluorescent calcium indicator Fluo-4 AM (10^−6 M) (Interchim UP72972) prepared in Buffer A, additionally containing 0.06% pluronic acid (Molecular probes P-6867) (a […] detergent which facilitates Fluo-4AM ester loading). (Loading: 100 μl per well of Buffer A containing 120 μl/ml Pluronic Acid and 1 μM Fluo-4AM was added to the cells).
After loading with Fluo-4 AM, transfected cells were incubated for 1 hour in the dark at 37° C.
Compounds to be tested were dissolved in Buffer A in triplicates at a concentration of 10^−6 M and distributed into another 96-well plate (Fisher Labosi A1210500).
Following incubation, excess Fluo-4AM was removed, 100 μl of Buffer A was added to each well at room temperature and immediately removed by aspiration. This was then repeated, before adding 50 μl Buffer A to each well.
Transfected cells were further incubated room temperature for 30 min to allow complete de-esterification of intracellular Fluo-4AM esters.
Subsequently, both plates, the black-bottom plate containing transfected cells and the microtiter plate containing the compounds to be tested, were then placed into a temperature-regulated (25° C.) FlexStation machine (benchtop scanning fluorometer Flex Station II, Molecular Devices, Sunnyvale, Calif., USA) for fluorescence output measurements.
Basal fluorescence output from the transfected cells was measured for 15 sec and then 50 μl of the compounds to be tested were automatically distributed into the wells containing the transfected cells. The fluorescence output was then recorded for a further 45 sec.
Excitation and emission wavelengths were 485 nm and 525 nm, respectively. Basal fluorescence intensity of Fluo-4AM-loaded transfected cells without compounds to be tested varied between 800-1200 arbitrary units, whereas maximal fluorescence output of dye-loaded transfected cells upon incubation with the compounds to be tested varied between 5000-7000 arbitrary units and was equivalent to that achieved by stimulation of dye-loaded transfected cells with 10^−6 M ghrelin. […]

human GHS-R 1a [2] = biological target: T1, human GHS-R 1a; test: GHS-R 1a receptor-ligand binding assay (membrane preparations from transfected LLC PK-1 cells); parameters: expressed in transfected cells; details: displacement of 125I-His9-ghrelin; plasma membranes of LLC PK-1 cells transiently transfected with human GHS-R 1a; mean of at least two independent experiments in triplicates
Description: II) GHS-R 1a Receptor-Ligand Binding Assay (Membrane Preparations from Transfected LLC PK-1 Cells)
The GHS-R 1a receptor binding/affinity studies were performed according to Guerlavais et al. (J. Med. Chem. 2003, 46: 1191-1203).
Isolated plasma membranes from LLC PK-1 cells, a renal epithelial cell line originally derived from porcine kidneys (ECACC No. 86121112) (10 μg of protein), that were transiently transfected with human GHS-R 1a cDNA (Guerlavais et al., J. Med. Chem. 2003, 46: 1191-1203), were incubated in homogenization buffer HB [50 mM Tris (pH 7.3), 5 mM MgCl2, 2.5 mM EDTA, and 30 μg/mL bacitracin (Sigma)] for 60 min at 25° C. (steady-state conditions) with […] ^125I-His^9-ghrelin (Amersham) in the presence or absence of competing compounds (compounds of the invention).
Nonspecific binding was defined using an excess (10^−6 M) of ghrelin. The binding reaction was stopped by addition of 4 mL of ice-cold HB followed by rapid filtration over Whatman GP/C filters presoaked with 0.5% polyethyleneimine to prevent excessive binding of radioligand to the filters. Filters were rinsed three times with 3 mL of icecold wash buffer [50 mM Tris (pH 7.3), 10 mM MgCl2, 2.5 mM EDTA, and 0.015% (w/v) X-100 Triton], and the radioactivity bound to membranes was measured in a gammacounter (Kontron Analytical Gamma Matic, Automatic gamma counting system).
The concentration of test compounds required to inhibit radiolabelled ghrelin binding by 50% (IC50) was determined by fitting competitive binding curves using non-linear regression (PRISM 3.0, Graph Pad San Diego, USA).
In the following table 2 results obtained for selected compounds of the invention are presented in comparison to an example of the prior art. IC50 values given are the mean of at least two independent experiments performed in triplicates.

T1 sequence (Q92847 whole entry): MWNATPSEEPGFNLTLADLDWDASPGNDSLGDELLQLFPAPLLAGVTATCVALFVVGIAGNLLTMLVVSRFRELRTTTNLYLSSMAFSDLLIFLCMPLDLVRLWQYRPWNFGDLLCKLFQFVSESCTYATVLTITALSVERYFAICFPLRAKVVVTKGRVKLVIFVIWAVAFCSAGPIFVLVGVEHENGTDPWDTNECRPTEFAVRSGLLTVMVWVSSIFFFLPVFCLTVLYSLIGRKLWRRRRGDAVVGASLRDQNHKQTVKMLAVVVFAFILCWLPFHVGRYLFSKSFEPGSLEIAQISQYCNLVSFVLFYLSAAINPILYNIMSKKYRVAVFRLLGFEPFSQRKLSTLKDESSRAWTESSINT

## CC(C)(N)C(=O)N[C@H](Cc1c[nH]c2ccccc12)c1nnc(CCCc2c[nH]c3ccccc23)n1Cc1ccccc1 [Compound 42, N-((R)-1-(5-(3-(1H-indol-3-yl)propyl)-4-benzyl-4H-1,2,4-triazol-3-yl)-2-(1H-indol-3-yl)ethyl)-2-amino-2-methylpropanamide]
Human GHS-R 1a [1]
  EC50: 0.034 µM
  activation at 1 µM: 100%
Human GHS-R 1a [2]
  IC50: 0.5 µM

## O=C(N[C@H](Cc1c[nH]c2ccccc12)c1nnc(CCCc2c[nH]c3ccccc23)n1Cc1cccc2ccccc12)C1CCCN1 (stereo partly drawn) [Compound 44, N-((R)-1-(5-(3-(1H-indol-3-yl)propyl)-4-((naphthalen-1-yl)methyl)-4H-1,2,4-triazol-3-yl)-2-(1H-indol-3-yl)ethyl)pyrrolidine-2-carboxamide]
Human GHS-R 1a [1]
  EC50: 0.012 µM
  activation at 1 µM: 100%
Human GHS-R 1a [2]
  IC50: 0.6 µM

## COc1cccc(Cn2c(CCCc3ccccc3)nnc2[C@@H](Cc2c[nH]c3ccccc23)NC(=O)C(C)(C)N)c1 [Compound 1, N-((R)-1-(4-(3-methoxybenzyl)-5-(3-phenylpropyl)-4H-1,2,4-triazol-3-yl)-2-(1H-indol-3-yl)ethyl)-2-amino-2-methylpropanamide]
Human GHS-R 1a [1]
  activation at 1 µM: 47%
Human GHS-R 1a [2]
  IC50: 0.38 µM

## COc1ccc(Cn2c(CCc3ccccc3)nnc2[C@@H](Cc2c[nH]c3ccccc23)NC(=O)[C@H]2CNCCN2)cc1 [Compound 2, (2R)-N-((R)-1-(4-(4-methoxybenzyl)-5-phenethyl-4H-1,2,4-triazol-3-yl)-2-(1H-indol-3-yl)ethyl)piperazine-2-carboxamide]
Human GHS-R 1a [1]
  EC50: 0.017 µM
  activation at 1 µM: 40%
Human GHS-R 1a [2]
  IC50: 0.143 µM

## NC1(C(=O)N[C@H](Cc2c[nH]c3ccccc23)c2nnc(CCCc3c[nH]c4ccccc34)n2Cc2ccccc2)CCNCC1 [Compound 43, N-((R)-1-(5-(3-(1H-indol-3-yl)propyl)-4-benzyl-4H-1,2,4-triazol-3-yl)-2-(1H-indol-3-yl)ethyl)-4-aminopiperidine-4-carboxamide]
Human GHS-R 1a [1]
  EC50: 0.0064 µM
Human GHS-R 1a [2]
  IC50: 0.035 µM

## COc1ccc(Cn2c(CCc3ccccc3)nnc2[C@@H](Cc2c[nH]c3ccccc23)NC(=O)C2(N)CCNCC2)cc1 [Compound 4, N-((R)-1-(4-(4-methoxybenzyl)-5-phenethyl-4H-1,2,4-triazol-3-yl)-2-(1H-indol-3-yl)ethyl)-4-aminopiperidine-4-carboxamide]
Human GHS-R 1a [1]
  EC50: 0.0041 µM
  activation at 1 µM: 90%
Human GHS-R 1a [2]
  IC50: 0.0066 µM

## O=C(Cc1ccccn1)N[C@H](Cc1c[nH]c2ccccc12)c1nnc(CCc2c[nH]c3ccccc23)n1Cc1cccc2ccccc12 [Compound 30, N-((R)-1-(5-(2-(1H-indol-3-yl)ethyl)-4-((naphthalen-1-yl)methyl)-4H-1,2,4-triazol-3-yl)-2-(1H-indol-3-yl)ethyl)-2-(pyridin-2-yl)acetamide]
Human GHS-R 1a [1]
  activation at 1 µM: 0%
Human GHS-R 1a [2]
  IC50: 0.125 µM

## COc1ccc(Cn2c(CCc3c[nH]c4ccccc34)nnc2[C@@H](Cc2c[nH]c3ccccc23)NC(=O)c2cccc(CN)c2)cc1 [Compound 13, N-((R)-1-(5-(2-(1H-indol-3-yl)ethyl)-4-(4-methoxybenzyl)-4H-1,2,4-triazol-3-yl)-2-(1H-indol-3-yl)ethyl)-3-(amino-methyl)benzamide]
Human GHS-R 1a [1]
  EC50: 0.0025 µM
  activation at 1 µM: 70%
Human GHS-R 1a [2]
  IC50: 0.0111 µM

## O=C(N[C@H](Cc1c[nH]c2ccccc12)c1nnc(CCc2c[nH]c3ccccc23)n1Cc1cccc2ccccc12)[C@@H]1CCCN1 [Compound 31, (2S)-N-((R)-1-(5-(2-(1H-indol-3-yl)ethyl)-4-((naphthalen-1-yl)methyl)-4H-1,2,4-triazol-3-yl)-2-(1H-indol-3-yl)ethyl)pyrrolidine-2-carboxamide]
Human GHS-R 1a [1]
  EC50: 0.0027 µM
  activation at 1 µM: 100%
Human GHS-R 1a [2]
  IC50: 0.505 µM

## O=C(N[C@H](Cc1c[nH]c2ccccc12)c1nnc(CCCc2c[nH]c3ccccc23)n1Cc1cccc2ccccc12)C1CCNCC1 [Compound 39, N-((R)-1-(5-(3-(1H-indol-3-yl)propyl)-4-((naphthalen-1-yl)methyl)-4H-1,2,4-triazol-3-yl)-2-(1H-indol-3-yl)ethyl)piperidine-4-carboxamide]
Human GHS-R 1a [1]
  EC50: 0.001 µM
Human GHS-R 1a [2]
  IC50: 0.0211 µM

## O=C(N[C@H](Cc1c[nH]c2ccccc12)c1nnc(CCCc2c[nH]c3ccccc23)n1Cc1ccccc1)C1CCNCC1 [Compound 22, N-((R)-1-(5-(3-(1H-indol-3-yl)propyl)-4-benzyl-4H-1,2,4-triazol-3-yl)-2-(1H-indol-3-yl)ethyl)piperidine-4-carboxamide]
Human GHS-R 1a [1]
  EC50: 0.0016 µM
  activation at 1 µM: 150%
Human GHS-R 1a [2]
  IC50: 0.04 µM

## O=C(N[C@H](Cc1c[nH]c2ccccc12)c1nnc(Cc2ccccc2)n1Cc1ccc(Cl)c(Cl)c1)C1CCNCC1 [Compound 33, N-((R)-1-(4-(3,4-dichlorobenzyl)-5-benzyl-4H-1,2,4-triazol-3-yl)-2-(1H-indol-3-yl)ethyl)piperidine-4-carboxamide]
Human GHS-R 1a [1]
  EC50: 0.0015 µM
  activation at 1 µM: 120%
Human GHS-R 1a [2]
  IC50: 0.005 µM

## O=C(N[C@H](Cc1c[nH]c2ccccc12)c1nnc(CCc2c[nH]c3ccccc23)n1Cc1cccc2ccccc12)C1CCOCC1 [Compound 20, N-((R)-1-(5-(2-(1H-indol-3-yl)ethyl)-4-((naphthalen-1-yl)methyl)-4H-1,2,4-triazol-3-yl)-2-(1H-indol-3-yl)ethyl)-tetrahydro-2H-pyran-4-carboxamide]
Human GHS-R 1a [1]
  EC50: 0.0006 µM
  activation at 1 µM: 80%
Human GHS-R 1a [2]
  IC50: 0.18 µM

## O=C(N[C@H](Cc1c[nH]c2ccccc12)c1nnc(CCc2ccccc2)n1Cc1cccc2ccccc12)C1CCNCC1 [Compound 15, N-((R)-2-(1H-indol-3-yl)-1-(4-((naphthalen-1-yl)methyl)-5-phenethyl-4H-1,2,4-triazol-3-yl)ethyl)piperidine-4-carboxamide]
Human GHS-R 1a [1]
  EC50: 0.002 µM
  activation at 1 µM: 120%
Human GHS-R 1a [2]
  IC50: 0.017 µM

From patent publication US20090239877A1, “NOVEL 1,2,4-TRIAZOLE DERIVATIVES AND PROCESS OF MANUFACTURING THEREOF” (AETERNA ZENTARIS GmbH, priority 2008, published 2009)
